Key:
hPOB-tert cells [1] = experiment: Alkaline phosphatase activity in hPOB-tert cells (Example 2); assay type: cell-based, human
Description: (§1) We have tested three concentrations of hesperetin in the hPOB culture medium seeded to confluence: 1, 10 and 50 μM. Furthermore, these media lacked osteoblast differentiation factors (Vitamin D3 and dexamethasone). The control contained 0.1% DMSO (hesperetin being dissolved in the DMSO). The cells were incubated in these media for 35 days. The alkaline phosphatase activity, a marker of osteoblast differentiation, was measured on a cell lysate by using a commercial kit (Sigma No 247). The cells had been harvested at 0, 4, 8 and 12 days of incubation. The calcium content of the cells, the mineralisation marker, was quantified on a cell lysate after 21 days of incubation in the different media, with the aid of a commercial kit (Sigma No587).

hPOB-tert cells [2] = experiment: Accumulation of calcium in hPOB-tert cells (Example 2); assay type: cell-based, human; conditions: hesperetin 50 μM, 21 days of incubation, vs control cells (0.1% DMSO)
Description: as §1

[3] = test system: oophorectomised rat (OVX) and sham-operated control rats (SH); experiment: Uterine weight (Example 1); assay type: in vivo, Wistar rats; conditions: 3 months; for uterine weight: hesperidin 0.5% in diet
From the text: (§2) In order to study the possible impact of this molecule on bone tissue, 40 female 3 months old Wistar rats (266±2 g) were used. These animals were accustomed to a basic semi-synthetic diet for the 7 days preceding the start of the period of experimentation. At D0, 20 rats were sham-operated, the other 20 were oophorectomised. Distributed in groups of 10, they were fed on various diets for 3 months, at the end of which they were sacrificed. The last week before being killed, from D85 to D90, the rats were inspected and the urine was collected (over a period of 24 hours). Similarly, the body composition of the rats was measured. After being killed the plasma and the femurs were collected for different analyses [Femurs: resistance to rupture, densitometry; Plasma: osteocalcinemia (marker for osteoblast activity), hesperetin level: Urines: desoxypyridinoline (marker for bone resorption)]. Throughout the entire duration of the experimentation, the rats were weighed once a week. The daily quantity of food distributed to each animal was 20 g.
(§3) 10 T SH and 10 T OVX: sham-operated and oophorectomised rats receiving a standard control diet for 3 months
(§4) 10 Hp SH et 10 Hp OVX: sham-operated and oophorectomised rats receiving a standard control diet supplemented with hesperidin (0.5%) for 3 months
The uterine weight was evaluated in order to validate the castration.

[4] = test system: six months' old oophorectomised rat; experiment: Bone mineral density of the femur, six months' old rats (Example 3); assay type: in vivo, Wistar rats; conditions: six months' old OVX rats, consumption of hesperidin (FIG. 11)
Description: (§5) The experiments were performed on 48 six months' old female Wistar rats: 24 oophorectomised (OVX) and 24 sham-operated (SH).
(§6) After the surgical operation on D0, the animals were given seven days to accustom themselves to their surroundings. At the end of this period of adaptation, the rodents were distributed on the basis of weight parameters in 4 homogeneous groups and received daily for 72 days 22 g of the following diets: • group SH: 12 sham-operated rats fed with the control diet • group OVX: 12 oophorectomised rats which received the control diet • group SH Hp: 12 sham-operated rats fed with the hesperidin diet • group OVX Hp: 12 oophorectomised rats which received the hesperidin diet
The femurs were extracted and adjacent soft tissues were removed, then the femurs were stored in 80% ethanol for the determination of bone density.

[5] = test system: oophorectomised rat (OVX) and sham-operated control rats (SH); experiment: Femoral densitometry (Example 1); assay type: in vivo, Wistar rats; conditions: for Total femoral density (T-BMD): hesperidin 0.5% in diet, 3 months
From the text: as §2, §3, §4
The densities are expressed in g/cm^2.

[6] = test system: oophorectomised rat (OVX) and sham-operated control rats (SH); experiment: Plasma levels of osteocalcin, marker for osteoblast activity (Example 1); assay type: in vivo, Wistar rats; conditions: Hp SH vs T SH, p<0.05 (FIG. 4)
From the text: as §2, §3, §4

[7] = test system: oophorectomised rat (OVX) and sham-operated control rats (SH); experiment: Urinary excretion of desoxypyridinoline, marker for bone resorption (Example 1); assay type: in vivo, Wistar rats
From the text: as §2, §3, §4

[8] = test system: six months' old oophorectomised rat; experiment: Uterine weight, six months' old rats (Example 3); assay type: in vivo, Wistar rats
Description: as §5, §6
When sacrificed (D90), the animals were anesthetised by an intra-peritoneal injection of chloral (Fluka: 8% solution; 0.4 ml/100 g live weight). Blood samples were collected from the abdominal aorta. The uterus was weighed.

[9] = test system: oophorectomised rat (OVX) and sham-operated control rats (SH); experiment: Femoral biomechanics (Example 1); assay type: in vivo, Wistar rats
From the text: as §2, §3, §4

[10] = test system: six months' old oophorectomised rat; experiment: Biomechanical properties of the femur, six months' old rats (Example 3); assay type: in vivo, Wistar rats; conditions: hesperidin diet (FIG. 14)
Description: as §5, §6
The mechanical properties of the femur of the individuals of the different groups of animals were analysed.

[11] = Circulating levels of hesperetin (Example 1); assay type: in vivo, Wistar rats; conditions: OVX and SH rats receiving diet supplemented with hesperidin 0.5%, 3 months
From the text: as §2, §4

SMILES: COc1ccc([C@@H]2CC(=O)c3c(O)cc(O)cc3O2)cc1O [hesperetin, (S)-2,3-dihydro-5,7-dihydroxy-2-(3-hydroxy-4-methoxyphenyl)-4H-1-benzopyran-4-one]
- alkaline phosphatase activity (osteoblast differentiation) (hPOB-tert cells [1]; hesperetin 1 μM, vs untreated cells, no vitamin D3 or dexamethasone): lacks effect
- alkaline phosphatase activity (osteoblast differentiation) (hPOB-tert cells [1]; hesperetin 10 μM, from the 4th day onwards, plateau on the 8th day): increase
- alkaline phosphatase activity (osteoblast differentiation) (hPOB-tert cells [1]; hesperetin 50 μM, from the 4th day onwards, plateau on the 8th day): most efficacious
- calcium deposition (calcium content of the cells) (hPOB-tert cells [2]): stimulate calcium deposition

SMILES: COc1ccc([C@@H]2CC(=O)c3c(O)cc(O[C@@H]4O[C@H](CO[C@@H]5O[C@@H](C)[C@H](O)[C@@H](O)[C@H]5O)[C@@H](O)[C@H](O)[C@H]4O)cc3O2)cc1O [hesperidin, (S)-7-[[6-0-(6-deoxy-α-L-mannopyranosyl)-β-D-glucopyranosyl]oxy]-2,3-dihydro-5-hydroxy-2-(3-hydroxy-4-methoxyphenyl)-4H-1-benzopyran-4-one]
- uterine weight ([3]; Hp OVX: oophorectomised rats, ** p<0.01 vs SH): 238.6 ± 2.23** mg
- uterine weight ([3]; Hp SH: sham-operated rats): 659.4 ± 8.96 mg
- uterotrophic effect ([3]; uterine weight not modified by consumption of hesperidin 0.5% in diet): lack a uterotrophic effect
- demineralisation of the femur (total bone mineral density) [4]: prevented (at least partially)
- Total femoral density (T-BMD) ([5]; Hp OVX: oophorectomised rats): 0.2445 g/cm^2
- Total femoral density (T-BMD) ([5]; Hp SH: sham-operated rats): 0.2501 g/cm^2
- diaphyseal femoral density, effect in words ([5]; both OVX and SH rats vs groups on standard diet, p<0.05): significantly improves
- metaphyseal femoral density (M-BMD) ([5]; intact or oophorectomised rats on hesperidin diet vs standard diet (FIG. 2)): increase
- metaphyseal femoral density (M-BMD), mineralisation ([5]; non-castrated animals, by comparison with T SH): improvement of the mineralisation
- total femoral density, effect on demineralisation induced by oophorectomy ([5]; oophorectomised rats, consumption of hesperidin): completely prevents this demineralisation
- total femoral density, effect in words ([5]; sham-operated (SH) rats, consumption of hesperidin): significantly improves
- plasma levels of osteocalcin (bone accretion) [6]: stimulates bone accretion
- urinary excretion of DPD ([7]; Hp SH rats in comparison with T SH): significantly diminished
- urinary excretion of desoxypyridinoline: increase of bone resorption induced by oophorectomy ([7]; OVX rats, consumption of hesperidin (FIG. 3)): prevented
- uterine atrophy following ovarian ablation ([8]; OVX rats, consumption of hesperidin (FIG. 10)): not prevented
- uterotrophic effect ([8]; six months' old rats, hesperidin diet (FIG. 10)): lacks a uterotrophic effect
- Femoral resistance to rupture ([9]; Hp SH: sham-operated rats, hesperidin 0.5% in diet, 3 months): 106.3 ± 5.3 N
- femoral resistance to rupture, effect in words ([9]; oophorectomised rats, diet supplemented with hesperidin): tendency to improve
- biomechanical properties of the femur (femoral load at rupture) ([10]; OVX Hp: six months' old oophorectomised rats): preserve them
- biomechanical properties of the femur (femoral load at rupture) ([10]; intact (sham-operated) six months' old rats): improve them
- mean plasma level of aglycone (hesperetin) [11]: 12.53 ± 2.48 µM
